Results published in the supplement of paper PMC13207355.

Columns and labels:
Conditions in all cases: exposure time: 72 h
E13 [1] = patient-derived glioblastoma stem cells of classical subtype; test: surviving fraction (nuclei count normalised to DMSO); higher = more cells surviving (less toxic)
E21 [2] = patient-derived glioblastoma stem cells of mesenchymal subtype; test: as above
E28 [3] = patient-derived glioblastoma stem cells of classical subtype; test: as above
E31 [4] = patient-derived glioblastoma stem cells of proneural subtype; test: as above
E34 [5] = patient-derived glioblastoma stem cells of proneural subtype; test: as above
E57 [6] = patient-derived glioblastoma stem cells of mesenchymal subtype; test: as above
FT3469 [7] = normal neural stem cell line; test: as above
E13 [8] = test: phenotypic distance (Euclidean, principal components) from DMSO controls (arbitrary units); higher = stronger morphological change
E21 [9] = test: as above
E28 [10] = test: as above
E31 [11] = test: as above
E34 [12] = test: as above
E57 [13] = test: as above
FT3469 [14] = test: as above
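Wherever phenotypic distance (Euclidean, principal components) from DMSO controls is given: cell Painting imaging in 384-well plates, CellProfiler features reduced to at least 20 principal components, Euclidean distance versus same-plate DMSO vehicle wells (0.1% v/v), median over six images per well.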
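Wherever surviving fraction (nuclei count normalised to DMSO) is given: nuclei counted by high-content imaging of Hoechst-stained cells in laminin-coated 384-well plates, relative to 0.1% DMSO vehicle wells, with staurosporine as cell-death control.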

C[C@@H](O[C@H]1OCCN(Cc2n[nH]c(=O)[nH]2)[C@H]1c1ccc(F)cc1)c1cc(C(F)(F)F)cc(C(F)(F)F)c1 [Aprepitant]
Conditions	phenotypic distance	surviving fraction
E13 [1], 4.1 nM	–	0.928
E13 [1], 12.3 nM	–	0.902
E13 [1], 37 nM	–	0.98
E13 [1], 111.1 nM	–	0.996
E13 [1], 333.3 nM	–	0.901
E13 [1], 1000 nM	–	0.903
E13 [1], 3000 nM	–	0.856
E13 [8], 4.1 nM	0.787	–
E13 [8], 12.3 nM	0.437	–
E13 [8], 37 nM	0.522	–
E13 [8], 111.1 nM	0.344	–
E13 [8], 333.3 nM	0.93	–
E13 [8], 1000 nM	0.532	–
E13 [8], 3000 nM	1.13	–
E21 [2], 4.1 nM	–	1.02
E21 [2], 12.3 nM	–	0.857
E21 [2], 37 nM	–	0.96
E21 [2], 111.1 nM	–	1.02
E21 [2], 333.3 nM	–	1.02
E21 [2], 1000 nM	–	0.955
E21 [2], 3000 nM	–	0.913
E21 [9], 4.1 nM	3.49	–
E21 [9], 12.3 nM	1.08	–
E21 [9], 37 nM	0.937	–
E21 [9], 111.1 nM	0.517	–
E21 [9], 333.3 nM	0.679	–
E21 [9], 1000 nM	0.478	–
E21 [9], 3000 nM	1.36	–
E28 [3], 4.1 nM	–	0.85
E28 [3], 12.3 nM	–	1.09
E28 [3], 37 nM	–	0.982
E28 [3], 111.1 nM	–	1.03
E28 [3], 333.3 nM	–	0.935
E28 [3], 1000 nM	–	1.03
E28 [3], 3000 nM	–	0.879
E28 [10], 4.1 nM	0.614	–
E28 [10], 12.3 nM	0.686	–
E28 [10], 37 nM	0.613	–
E28 [10], 111.1 nM	0.671	–
E28 [10], 333.3 nM	0.788	–
E28 [10], 1000 nM	0.862	–
E28 [10], 3000 nM	0.675	–
E31 [4], 4.1 nM	–	1.03
E31 [4], 12.3 nM	–	0.789
E31 [4], 37 nM	–	1.01
E31 [4], 111.1 nM	–	0.981
E31 [4], 333.3 nM	–	1.07
E31 [4], 1000 nM	–	1.04
E31 [4], 3000 nM	–	1
E31 [11], 4.1 nM	0.696	–
E31 [11], 12.3 nM	1.23	–
E31 [11], 37 nM	0.463	–
E31 [11], 111.1 nM	0.647	–
E31 [11], 333.3 nM	1.03	–
E31 [11], 1000 nM	0.986	–
E31 [11], 3000 nM	1.02	–
E34 [5], 4.1 nM	–	1.01
E34 [5], 12.3 nM	–	1.01
E34 [5], 37 nM	–	0.914
E34 [5], 111.1 nM	–	1.03
E34 [5], 333.3 nM	–	0.934
E34 [5], 1000 nM	–	0.948
E34 [5], 3000 nM	–	0.963
E34 [12], 4.1 nM	0.513	–
E34 [12], 12.3 nM	0.635	–
E34 [12], 37 nM	0.742	–
E34 [12], 111.1 nM	0.53	–
E34 [12], 333.3 nM	0.573	–
E34 [12], 1000 nM	0.615	–
E34 [12], 3000 nM	1.13	–
E57 [6], 4.1 nM	–	0.865
E57 [6], 12.3 nM	–	1.03
E57 [6], 37 nM	–	1.02
E57 [6], 111.1 nM	–	0.945
E57 [6], 333.3 nM	–	0.985
E57 [6], 1000 nM	–	1.07
E57 [6], 3000 nM	–	0.96
E57 [13], 4.1 nM	0.607	–
E57 [13], 12.3 nM	0.891	–
E57 [13], 37 nM	0.573	–
E57 [13], 111.1 nM	0.373	–
E57 [13], 333.3 nM	0.479	–
E57 [13], 1000 nM	1.04	–
E57 [13], 3000 nM	1.13	–
FT3469 [7], 4.1 nM	–	0.843
FT3469 [7], 12.3 nM	–	0.823
FT3469 [7], 37 nM	–	0.935
FT3469 [7], 111.1 nM	–	0.829
FT3469 [7], 333.3 nM	–	0.999
FT3469 [7], 1000 nM	–	0.797
FT3469 [7], 3000 nM	–	0.929
FT3469 [14], 4.1 nM	0.824	–
FT3469 [14], 12.3 nM	0.817	–
FT3469 [14], 37 nM	0.96	–
FT3469 [14], 111.1 nM	0.816	–
FT3469 [14], 333.3 nM	0.735	–
FT3469 [14], 1000 nM	0.537	–
FT3469 [14], 3000 nM	0.788	–

C[C@H](Cc1cc2c(c(C(N)=O)c1)N(CCCO)CC2)NCCOc1ccccc1OCC(F)(F)F [Silodosin]
Conditions	phenotypic distance	surviving fraction
E13 [1], 4.1 nM	–	0.879
E13 [1], 12.3 nM	–	0.889
E13 [1], 37 nM	–	0.914
E13 [1], 111.1 nM	–	0.899
E13 [1], 333.3 nM	–	0.859
E13 [1], 1000 nM	–	0.9
E13 [1], 3000 nM	–	0.93
E13 [8], 4.1 nM	0.445	–
E13 [8], 12.3 nM	0.872	–
E13 [8], 37 nM	0.863	–
E13 [8], 111.1 nM	0.966	–
E13 [8], 333.3 nM	0.915	–
E13 [8], 1000 nM	0.684	–
E13 [8], 3000 nM	0.641	–
E21 [2], 4.1 nM	–	0.872
E21 [2], 12.3 nM	–	0.94
E21 [2], 37 nM	–	0.885
E21 [2], 111.1 nM	–	0.958
E21 [2], 333.3 nM	–	0.998
E21 [2], 1000 nM	–	1.04
E21 [2], 3000 nM	–	1.03
E21 [9], 4.1 nM	2.39	–
E21 [9], 12.3 nM	1.7	–
E21 [9], 37 nM	1.04	–
E21 [9], 111.1 nM	0.791	–
E21 [9], 333.3 nM	0.998	–
E21 [9], 1000 nM	0.539	–
E21 [9], 3000 nM	1.04	–
E28 [3], 4.1 nM	–	0.896
E28 [3], 12.3 nM	–	0.951
E28 [3], 37 nM	–	0.935
E28 [3], 111.1 nM	–	0.781
E28 [3], 333.3 nM	–	0.941
E28 [3], 1000 nM	–	0.892
E28 [3], 3000 nM	–	0.877
E28 [10], 4.1 nM	0.716	–
E28 [10], 12.3 nM	0.594	–
E28 [10], 37 nM	0.634	–
E28 [10], 111.1 nM	0.795	–
E28 [10], 333.3 nM	0.798	–
E28 [10], 1000 nM	0.495	–
E28 [10], 3000 nM	0.823	–
E31 [4], 4.1 nM	–	1.03
E31 [4], 12.3 nM	–	0.873
E31 [4], 37 nM	–	0.879
E31 [4], 111.1 nM	–	0.922
E31 [4], 333.3 nM	–	0.967
E31 [4], 1000 nM	–	0.962
E31 [4], 3000 nM	–	0.852
E31 [11], 4.1 nM	0.63	–
E31 [11], 12.3 nM	0.581	–
E31 [11], 37 nM	1.01	–
E31 [11], 111.1 nM	0.959	–
E31 [11], 333.3 nM	0.426	–
E31 [11], 1000 nM	0.534	–
E31 [11], 3000 nM	1.14	–
E34 [5], 4.1 nM	–	0.923
E34 [5], 12.3 nM	–	0.923
E34 [5], 37 nM	–	0.82
E34 [5], 111.1 nM	–	0.869
E34 [5], 333.3 nM	–	0.932
E34 [5], 1000 nM	–	0.863
E34 [5], 3000 nM	–	0.802
E34 [12], 4.1 nM	1.06	–
E34 [12], 12.3 nM	0.76	–
E34 [12], 37 nM	0.492	–
E34 [12], 111.1 nM	2.26	–
E34 [12], 333.3 nM	0.348	–
E34 [12], 1000 nM	1.18	–
E34 [12], 3000 nM	1.12	–
E57 [6], 4.1 nM	–	0.935
E57 [6], 12.3 nM	–	0.844
E57 [6], 37 nM	–	0.878
E57 [6], 111.1 nM	–	0.843
E57 [6], 333.3 nM	–	0.955
E57 [6], 1000 nM	–	0.911
E57 [6], 3000 nM	–	0.792
E57 [13], 4.1 nM	0.807	–
E57 [13], 12.3 nM	1.04	–
E57 [13], 37 nM	0.711	–
E57 [13], 111.1 nM	1.62	–
E57 [13], 333.3 nM	0.512	–
E57 [13], 1000 nM	0.794	–
E57 [13], 3000 nM	1.7	–
FT3469 [7], 4.1 nM	–	0.874
FT3469 [7], 12.3 nM	–	0.91
FT3469 [7], 37 nM	–	1.05
FT3469 [7], 111.1 nM	–	0.959
FT3469 [7], 333.3 nM	–	0.939
FT3469 [7], 1000 nM	–	0.815
FT3469 [7], 3000 nM	–	0.925
FT3469 [14], 4.1 nM	1.28	–
FT3469 [14], 12.3 nM	0.608	–
FT3469 [14], 37 nM	0.869	–
FT3469 [14], 111.1 nM	0.648	–
FT3469 [14], 333.3 nM	1.02	–
FT3469 [14], 1000 nM	0.845	–
FT3469 [14], 3000 nM	1.05	–
